{"source": "EPA's ToxValDB 9.5 (doi:10.2903/j.efsa.2008.136r)", "key": {"[1]": {"test_system": "Anas platyrhynchos", "settings": "oral, mortality"}, "[2]": {"test_system": "Apis mellifera", "settings": "acute; duration: 48 hours; oral; unspecified; mortality"}, "[3]": {"test_system": "Canidae", "settings": "oral, Dog Other, organ weight"}, "[4]": {"test_system": "Colinus virginianus", "settings": "acute, oral, mortality"}, "[5]": {"test_system": "Coturnix japonica", "settings": "reproduction developmental"}, "[6]": {"test_system": "Daphnia magna", "settings": "chronic/long-term; duration: 21 days; reproduction"}, "[7]": {"test_system": "Oncorhynchus mykiss", "settings": "acute; duration: 96 hours; mortality"}, "[8]": {"test_system": "Pimephales promelas", "settings": "chronic/long-term; duration: 35 days; growth"}, "[9]": {"test_system": "Rattus norvegicus"}, "[10]": {"test_system": "Tagia sp."}, "[11]": {"test_system": "Typhlodromus pyri", "settings": "acute; duration: 7 days; mortality"}}}
{"smiles": "Clc1ccc(C2(Cn3cncn3)CC(Br)CO2)c(Cl)c1", "note": "(stereo not drawn) [Bromuconazole]", "values": [{"measurement": "LD50", "setting": "[1]; acute, unspecified", "result": "> 2150", "unit": "mg/kg-day"}, {"measurement": "LC50", "setting": "[1]; short-term, feed", "result": "> 684", "unit": "mg/kg-day"}, {"measurement": "LD50", "setting": "[2]", "result": "> 100", "unit": "µg/piece"}, {"measurement": "NOAEL", "setting": "[3]; chronic, duration: 1 years", "result": 2.5, "unit": "mg/kg-day"}, {"measurement": "NOAEL", "setting": "[3]; subchronic, duration: 90 days", "result": 2.5, "unit": "mg/kg-day"}, {"measurement": "LC50", "setting": "[4]; diet", "result": "> 778", "unit": "mg/kg-day"}, {"measurement": "LD50", "setting": "[4]", "result": "> 2150", "unit": "mg/kg-day"}, {"measurement": "NOEC", "setting": "[5]", "result": 26.5, "unit": "mg/kg-day"}, {"measurement": "NOEC", "setting": "[6]", "result": 0.02, "unit": "mg/L"}, {"measurement": "LC50", "setting": "[7]", "result": 1.7, "unit": "µg/mL"}, {"measurement": "NOEC", "setting": "[8]", "result": 0.065, "unit": "mg/L"}, {"measurement": "LD50", "setting": "[9]; acute, F, mortality", "result": 328, "unit": "mg/kg-day"}, {"measurement": "NOAEL", "setting": "[9]; chronic, duration: 2 years, oral, diet, histopathology: nonneoplastic", "result": 0.88, "unit": "mg/kg-day"}, {"measurement": "NOAEL", "setting": "[9]; developmental, development", "result": 10, "unit": "mg/kg-day"}, {"measurement": "NOEC", "setting": "[9]; reproduction developmental, reproduction", "result": 1.3, "unit": "mg/kg-day"}, {"measurement": "LC50", "setting": "[10]; acute, duration: 14 days, mortality", "result": "> 1000", "unit": "mg/kg"}, {"measurement": "NOEC", "setting": "[10]; chronic/long-term, duration: 56 days", "result": 37.2, "unit": "mg/kg"}, {"measurement": "LEL", "setting": "[11]", "result": 260, "unit": "g/ha"}]}
